# According to patent EP1369114A1, “Use of tryptophan metabolites as pharmaceutical agents” (Terness, Peter, Priv. Doz. Dr., priority 2002, dated 2003):
# Tested on: T cells stimulated by allogeneic DCs
# Test: Allogeneic T-cell response: lymphocyte proliferation induced by allogeneic dendritic cells, 3[H]-thymidin incorporation
# Format: cell-based, human
# Settings: 6 days
# From the text: DCs were generated from CD14-positive blood monocytes as previously described ("Schuler G. and N. Romani", 1997, Adv. Exp. Med. Biol. 417:7-13). Briefly, peripheral blood mononuclear cells of an HLA-typed healthy donor were separated by density gradient centrifugation and CD14-positive monocytes were isolated by adherence to culture dishes. Non-adherent cells were discarded. After culture of monocytes in the presence of human rGM-CSF (666 Units/ml) and rIL-4 (1000 Units/ml) for 7 days, rTNF-α (10 ng/ml) was added for an additional 2 days to induce maturation of DC. Characterization of DC phenotype was performed by flow cytometry using the following mouse monoclonal antibodies: anti-CD 14-FITC, anti-HLA-DR-FITC, anti-CD 1a-PE, anti-CD86-PE, and anti-CD83-PE (BD Biosciences Heidelberg, Germany). DCs were kept in liquid nitrogen until use.
# • (a) Allogeneic T-cell response. DCs were infected with recombinant IDO-adeno-GFP (DC-IDO-GFP), IDO-adeno (DC-IDO) or with control adenoviruses (DC-adeno) at a MOI (multiplicity of infection) up to 500 for 2 days. […] After 5 days, ^3[H]-thymidin was added for 12hrs and the number of counts (counts per minute = cpm) determined in a (3-counter (Inotech Biosystems, Lansing, MI). In order to verify whether IDO expression or adenovirus infection harm the DCs, 10^5 cells were infected with IDO-adeno-GFP, IDO-adenovirus, or adenovirus only at a stepwise decreasing MOI (500, 250, 125, ........ 3.9) and cell viability was measured in FACS following double staining with 7-AAD and anti-CD83 antibody-PE. The percentage of dead cells never exceeded 30% for any MOI following IDO-adeno-GFP- or IDO-adeno-infection and 40% following adenovirus(control)-infection. […] After 2 days, cell proliferation was assessed by measuring ^3[H]-thymidin incorporation (cpm) as described. • (c) Tryptophan metabolite titration curves. […] After 2 days, ^3[H] thymidin was added and the number of counts recorded. […] After another 2 days, ^3[H] thymidin was added and cpm determined. […]
compound,measurement,setting,value
Nc1ccccc1C(=O)CC(N)C(=O)O (centres unmarked) [kynurenine],inhibition of proliferation of T cells stimulated by allogeneic DCs (in words),,completely inhibit the proliferation of T cells
same,IC50,"Homo sapiens, T-cell, 144 h, 3[H]-thymidin incorporation, read-out: 50% inhibition (I50) of proliferation of T cells stimulated by allogeneic DCs",157 µM
